Test results published in ChEMBL document CHEMBL4507265 (2021).

Tests used:
[1] = molecular target: Serine/threonine-protein kinase pim-2 (Homo sapiens) (UniProt Q9P1W9); conditions: Compound concentration 1000.0 nM
[2] = molecular target: Serine/threonine-protein kinase 16 (Homo sapiens) (UniProt O75716); conditions: Compound concentration 1000.0 nM
[3] = molecular target: Cyclin-dependent kinase 17 (Homo sapiens) (UniProt Q00537); conditions: Compound concentration 1000.0 nM
[4] = molecular target: Serine/threonine-protein kinase TAO2 (Homo sapiens) (UniProt Q9UL54); conditions: Compound concentration 1000.0 nM
[5] = molecular target: Tyrosine-protein kinase JAK2 (Homo sapiens) (UniProt O60674); conditions: Compound concentration 1000.0 nM
[6] = test system: Tyrosine-protein kinase ABL1 (Homo sapiens), P00519 [F317I]; conditions: Compound concentration 1000.0 nM
[7] = molecular target: Aurora kinase B (Homo sapiens) (UniProt Q96GD4); conditions: Compound concentration 1000.0 nM
[8] = molecular target: Tyrosine-protein kinase Lck (Homo sapiens) (UniProt P06239); conditions: Compound concentration 1000.0 nM
[9] = molecular target: Serine/threonine-protein kinase NLK (Homo sapiens) (UniProt Q9UBE8); conditions: Compound concentration 1000.0 nM
[10] = molecular target: T1, Alpha-1D adrenergic receptor (Homo sapiens) (UniProt P25100); conditions: Compound concentration 10.0 uM
T1 sequence (whole entry): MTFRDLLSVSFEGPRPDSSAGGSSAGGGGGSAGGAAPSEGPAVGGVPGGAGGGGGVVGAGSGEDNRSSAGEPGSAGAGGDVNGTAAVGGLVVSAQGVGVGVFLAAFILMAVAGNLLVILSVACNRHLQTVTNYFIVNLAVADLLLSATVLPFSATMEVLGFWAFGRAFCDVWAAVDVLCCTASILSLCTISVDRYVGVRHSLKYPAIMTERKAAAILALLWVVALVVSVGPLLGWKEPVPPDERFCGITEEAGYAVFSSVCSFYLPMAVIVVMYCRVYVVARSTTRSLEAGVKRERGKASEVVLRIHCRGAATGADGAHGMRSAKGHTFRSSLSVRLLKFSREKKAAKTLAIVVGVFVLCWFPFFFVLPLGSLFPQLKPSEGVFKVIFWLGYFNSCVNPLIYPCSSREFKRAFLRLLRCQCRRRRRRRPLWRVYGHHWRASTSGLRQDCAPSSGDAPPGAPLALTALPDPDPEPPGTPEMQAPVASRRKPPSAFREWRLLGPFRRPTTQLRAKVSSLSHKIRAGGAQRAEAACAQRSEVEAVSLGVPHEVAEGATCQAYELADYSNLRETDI

[11] = molecular target: Mitogen-activated protein kinase kinase kinase 7 (Homo sapiens) (UniProt O43318); conditions: Compound concentration 1000.0 nM
[12] = molecular target: Calcium/calmodulin-dependent protein kinase type 1D (Homo sapiens) (UniProt Q8IU85); conditions: Compound concentration 1000.0 nM
[13] = molecular target: Death-associated protein kinase 2 (Homo sapiens) (UniProt Q9UIK4); conditions: Compound concentration 1000.0 nM
[14] = molecular target: Serine/threonine-protein kinase PAK 5 (Homo sapiens) (UniProt Q9P286); conditions: Compound concentration 1000.0 nM
[15] = molecular target: Serine/threonine-protein kinase Nek4 (Homo sapiens) (UniProt P51957); conditions: Compound concentration 1000.0 nM
[16] = molecular target: 5-hydroxytryptamine receptor 2C (Homo sapiens) (UniProt P28335); conditions: Compound concentration 10.0 uM
[17] = molecular target: Receptor-type tyrosine-protein kinase FLT3 (Homo sapiens) (UniProt P36888); conditions: Compound concentration 1000.0 nM
[18] = molecular target: Serine/threonine-protein kinase LATS2 (Homo sapiens) (UniProt Q9NRM7); conditions: Compound concentration 1000.0 nM
[19] = molecular target: Cytoplasmic tyrosine-protein kinase BMX (Homo sapiens) (UniProt P51813); conditions: Compound concentration 1000.0 nM
[20] = molecular target: Histamine H2 receptor (Homo sapiens) (UniProt P25021); conditions: Compound concentration 10.0 uM
[21] = molecular target: Cyclin-dependent kinase 2 homolog (Plasmodium falciparum (isolate 3D7)) (UniProt P61075); conditions: Compound concentration 1000.0 nM
[22] = molecular target: Phosphatidylinositol 4-phosphate 5-kinase type-1 gamma (Homo sapiens) (UniProt O60331); conditions: Compound concentration 1000.0 nM
[23] = molecular target: Activin receptor type-1 (Homo sapiens) (UniProt Q04771); conditions: Compound concentration 1000.0 nM
[24] = molecular target: Muscarinic acetylcholine receptor M5 (Homo sapiens) (UniProt P08912); conditions: Compound concentration 10.0 uM
[25] = molecular target: Bone morphogenetic protein receptor type-1A (Homo sapiens) (UniProt P36894); conditions: Compound concentration 1000.0 nM
[26] = molecular target: Ribosomal protein S6 kinase alpha-2 (Homo sapiens) (UniProt Q15349); conditions: Compound concentration 1000.0 nM
[27] = molecular target: D(3) dopamine receptor (Homo sapiens) (UniProt P35462); conditions: Compound concentration 10.0 uM
[28] = molecular target: Serine/threonine-protein kinase Nek5 (Homo sapiens) (UniProt Q6P3R8); conditions: Compound concentration 1000.0 nM
[29] = molecular target: Mitogen-activated protein kinase kinase kinase 9 (Homo sapiens) (UniProt P80192); conditions: Compound concentration 1000.0 nM
[30] = molecular target: Serine/threonine-protein kinase TAO1 (Homo sapiens) (UniProt Q7L7X3); conditions: Compound concentration 1000.0 nM
[31] = molecular target: Inhibitor of nuclear factor kappa-B kinase subunit epsilon (Homo sapiens) (UniProt Q14164); conditions: Compound concentration 1000.0 nM
[32] = molecular target: Tyrosine-protein kinase JAK1 (Homo sapiens) (UniProt P23458); conditions: Compound concentration 1000.0 nM
[33] = molecular target: Phosphatidylinositol 4,5-bisphosphate 3-kinase catalytic subunit delta isoform (Homo sapiens) (UniProt O00329); conditions: Compound concentration 1000.0 nM
[34] = molecular target: Receptor-interacting serine/threonine-protein kinase 1 (Homo sapiens) (UniProt Q13546); conditions: Compound concentration 1000.0 nM
[35] = molecular target: Serine/threonine-protein kinase TNNI3K (Homo sapiens) (UniProt Q59H18); conditions: Compound concentration 1000.0 nM
[36] = molecular target: Serine/threonine-protein kinase RIO3 (Homo sapiens) (UniProt O14730); conditions: Compound concentration 1000.0 nM
[37] = molecular target: Casein kinase I isoform gamma-1 (Homo sapiens) (UniProt Q9HCP0); conditions: Compound concentration 1000.0 nM
Casein kinase I isoform gamma-1 (Homo sapiens), sequence (Q9HCP0 whole entry, looked up, canonical isoform): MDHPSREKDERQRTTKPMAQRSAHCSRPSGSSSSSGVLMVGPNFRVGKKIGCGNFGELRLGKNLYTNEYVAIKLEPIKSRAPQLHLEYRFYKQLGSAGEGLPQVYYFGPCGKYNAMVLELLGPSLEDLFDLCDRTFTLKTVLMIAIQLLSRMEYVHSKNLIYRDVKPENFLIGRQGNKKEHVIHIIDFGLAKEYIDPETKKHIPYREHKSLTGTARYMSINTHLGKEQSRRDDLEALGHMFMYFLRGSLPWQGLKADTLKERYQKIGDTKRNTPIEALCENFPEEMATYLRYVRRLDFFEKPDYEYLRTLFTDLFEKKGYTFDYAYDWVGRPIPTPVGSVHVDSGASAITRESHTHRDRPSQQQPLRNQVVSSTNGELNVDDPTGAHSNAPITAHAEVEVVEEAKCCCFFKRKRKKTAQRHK

Receptor-type tyrosine-protein kinase FLT3 (Homo sapiens), sequence (P36888 whole entry): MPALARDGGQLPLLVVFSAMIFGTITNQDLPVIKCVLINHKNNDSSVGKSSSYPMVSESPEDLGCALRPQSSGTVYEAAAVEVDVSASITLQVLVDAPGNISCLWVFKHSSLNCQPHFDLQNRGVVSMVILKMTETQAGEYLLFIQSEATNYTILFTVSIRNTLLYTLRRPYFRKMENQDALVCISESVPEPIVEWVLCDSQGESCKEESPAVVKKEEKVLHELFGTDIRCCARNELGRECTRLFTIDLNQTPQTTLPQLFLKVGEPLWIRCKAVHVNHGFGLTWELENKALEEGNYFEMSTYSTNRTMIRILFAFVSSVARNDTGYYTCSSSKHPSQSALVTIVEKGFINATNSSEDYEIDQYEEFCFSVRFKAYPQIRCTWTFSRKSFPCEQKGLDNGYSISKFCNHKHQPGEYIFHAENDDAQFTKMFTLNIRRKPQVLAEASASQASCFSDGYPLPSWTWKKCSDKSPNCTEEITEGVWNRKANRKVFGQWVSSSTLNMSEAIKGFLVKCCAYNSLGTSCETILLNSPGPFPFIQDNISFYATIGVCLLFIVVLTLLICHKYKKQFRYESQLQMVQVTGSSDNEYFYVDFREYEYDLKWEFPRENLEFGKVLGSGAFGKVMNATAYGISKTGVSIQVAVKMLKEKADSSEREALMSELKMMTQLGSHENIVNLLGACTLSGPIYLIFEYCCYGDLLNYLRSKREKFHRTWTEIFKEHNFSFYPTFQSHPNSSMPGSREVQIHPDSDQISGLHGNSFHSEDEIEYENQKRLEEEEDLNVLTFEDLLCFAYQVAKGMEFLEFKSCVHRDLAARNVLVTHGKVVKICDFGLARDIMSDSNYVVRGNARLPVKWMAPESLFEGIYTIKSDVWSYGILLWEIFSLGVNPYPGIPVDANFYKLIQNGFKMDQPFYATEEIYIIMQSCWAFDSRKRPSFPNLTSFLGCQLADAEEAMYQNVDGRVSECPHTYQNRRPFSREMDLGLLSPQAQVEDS
Bone morphogenetic protein receptor type-1A (Homo sapiens), sequence (P36894 whole entry): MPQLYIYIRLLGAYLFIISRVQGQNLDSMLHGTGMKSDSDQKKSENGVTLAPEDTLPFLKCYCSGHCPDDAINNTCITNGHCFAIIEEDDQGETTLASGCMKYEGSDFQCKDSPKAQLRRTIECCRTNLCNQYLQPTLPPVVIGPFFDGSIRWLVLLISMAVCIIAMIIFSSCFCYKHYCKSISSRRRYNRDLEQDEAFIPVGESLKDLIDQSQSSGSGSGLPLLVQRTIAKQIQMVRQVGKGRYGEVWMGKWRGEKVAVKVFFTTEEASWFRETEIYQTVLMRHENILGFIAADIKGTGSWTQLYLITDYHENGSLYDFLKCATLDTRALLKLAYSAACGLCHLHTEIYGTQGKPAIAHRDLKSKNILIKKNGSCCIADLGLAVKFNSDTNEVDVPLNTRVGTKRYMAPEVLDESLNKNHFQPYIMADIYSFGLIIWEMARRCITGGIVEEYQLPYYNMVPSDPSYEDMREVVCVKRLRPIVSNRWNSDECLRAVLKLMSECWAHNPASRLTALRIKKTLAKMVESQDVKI
Cyclin-dependent kinase 2 homolog (Plasmodium falciparum (isolate 3D7)), sequence (P61075 whole entry): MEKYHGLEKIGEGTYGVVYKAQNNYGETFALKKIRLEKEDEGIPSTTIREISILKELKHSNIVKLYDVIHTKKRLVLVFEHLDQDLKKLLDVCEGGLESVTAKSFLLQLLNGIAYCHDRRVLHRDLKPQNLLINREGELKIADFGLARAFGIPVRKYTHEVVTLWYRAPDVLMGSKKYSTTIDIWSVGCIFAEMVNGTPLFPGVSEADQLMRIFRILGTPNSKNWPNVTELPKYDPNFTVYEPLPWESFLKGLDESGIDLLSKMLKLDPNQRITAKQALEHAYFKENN
Cyclin-dependent kinase 17 (Homo sapiens), sequence (Q00537 whole entry, looked up): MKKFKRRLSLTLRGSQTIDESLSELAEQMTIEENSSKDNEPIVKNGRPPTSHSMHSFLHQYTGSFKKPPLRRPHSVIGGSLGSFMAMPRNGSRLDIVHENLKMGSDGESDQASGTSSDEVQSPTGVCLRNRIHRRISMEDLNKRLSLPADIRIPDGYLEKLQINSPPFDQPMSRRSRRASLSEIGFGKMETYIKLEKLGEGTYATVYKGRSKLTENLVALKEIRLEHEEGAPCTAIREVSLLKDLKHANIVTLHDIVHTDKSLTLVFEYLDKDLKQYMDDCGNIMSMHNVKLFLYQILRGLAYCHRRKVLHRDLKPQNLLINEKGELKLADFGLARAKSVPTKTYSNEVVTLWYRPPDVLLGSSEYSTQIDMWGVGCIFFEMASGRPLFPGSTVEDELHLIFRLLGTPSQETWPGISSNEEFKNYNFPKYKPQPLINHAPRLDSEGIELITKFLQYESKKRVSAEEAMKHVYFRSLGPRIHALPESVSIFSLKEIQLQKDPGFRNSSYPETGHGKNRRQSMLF
Serine/threonine-protein kinase PAK 5 (Homo sapiens), sequence (Q9P286 whole entry, looked up): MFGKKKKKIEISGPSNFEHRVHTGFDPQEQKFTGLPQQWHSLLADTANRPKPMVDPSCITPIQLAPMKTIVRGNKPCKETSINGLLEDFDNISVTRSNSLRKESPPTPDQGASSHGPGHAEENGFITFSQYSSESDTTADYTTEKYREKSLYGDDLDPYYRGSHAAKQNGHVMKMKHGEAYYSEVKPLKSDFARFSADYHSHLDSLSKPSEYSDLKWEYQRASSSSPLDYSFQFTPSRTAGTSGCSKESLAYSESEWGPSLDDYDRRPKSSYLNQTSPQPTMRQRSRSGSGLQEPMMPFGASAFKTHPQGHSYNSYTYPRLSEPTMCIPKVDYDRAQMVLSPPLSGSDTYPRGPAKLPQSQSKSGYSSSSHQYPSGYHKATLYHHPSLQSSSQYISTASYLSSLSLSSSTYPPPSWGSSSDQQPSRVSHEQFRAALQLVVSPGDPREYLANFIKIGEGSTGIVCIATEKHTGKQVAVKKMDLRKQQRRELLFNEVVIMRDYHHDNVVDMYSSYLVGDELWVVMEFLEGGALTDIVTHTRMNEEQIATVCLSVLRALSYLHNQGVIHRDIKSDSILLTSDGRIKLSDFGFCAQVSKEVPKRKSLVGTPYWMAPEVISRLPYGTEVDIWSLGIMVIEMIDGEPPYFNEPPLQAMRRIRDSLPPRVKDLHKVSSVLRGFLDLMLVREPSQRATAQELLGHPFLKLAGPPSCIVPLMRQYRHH
Inhibitor of nuclear factor kappa-B kinase subunit epsilon (Homo sapiens), sequence (Q14164 whole entry): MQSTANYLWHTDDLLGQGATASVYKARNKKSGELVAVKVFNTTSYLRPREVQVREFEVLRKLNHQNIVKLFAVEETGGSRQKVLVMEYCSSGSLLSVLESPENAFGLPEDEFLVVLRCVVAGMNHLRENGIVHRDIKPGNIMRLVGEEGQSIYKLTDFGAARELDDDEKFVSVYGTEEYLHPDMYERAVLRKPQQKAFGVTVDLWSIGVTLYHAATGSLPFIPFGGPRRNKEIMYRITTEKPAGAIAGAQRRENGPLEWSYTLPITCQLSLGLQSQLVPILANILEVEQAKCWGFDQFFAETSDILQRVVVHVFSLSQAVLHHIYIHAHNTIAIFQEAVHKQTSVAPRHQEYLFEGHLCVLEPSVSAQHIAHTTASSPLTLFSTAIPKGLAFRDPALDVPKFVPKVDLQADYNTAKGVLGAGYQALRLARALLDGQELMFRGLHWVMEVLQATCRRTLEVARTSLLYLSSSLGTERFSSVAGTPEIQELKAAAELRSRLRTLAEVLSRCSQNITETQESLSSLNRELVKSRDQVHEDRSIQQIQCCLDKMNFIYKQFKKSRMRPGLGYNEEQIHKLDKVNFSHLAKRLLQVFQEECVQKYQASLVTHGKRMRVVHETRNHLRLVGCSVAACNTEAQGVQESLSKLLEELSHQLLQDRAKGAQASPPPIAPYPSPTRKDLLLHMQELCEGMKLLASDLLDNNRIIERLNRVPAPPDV
Activin receptor type-1 (Homo sapiens), sequence (Q04771 whole entry): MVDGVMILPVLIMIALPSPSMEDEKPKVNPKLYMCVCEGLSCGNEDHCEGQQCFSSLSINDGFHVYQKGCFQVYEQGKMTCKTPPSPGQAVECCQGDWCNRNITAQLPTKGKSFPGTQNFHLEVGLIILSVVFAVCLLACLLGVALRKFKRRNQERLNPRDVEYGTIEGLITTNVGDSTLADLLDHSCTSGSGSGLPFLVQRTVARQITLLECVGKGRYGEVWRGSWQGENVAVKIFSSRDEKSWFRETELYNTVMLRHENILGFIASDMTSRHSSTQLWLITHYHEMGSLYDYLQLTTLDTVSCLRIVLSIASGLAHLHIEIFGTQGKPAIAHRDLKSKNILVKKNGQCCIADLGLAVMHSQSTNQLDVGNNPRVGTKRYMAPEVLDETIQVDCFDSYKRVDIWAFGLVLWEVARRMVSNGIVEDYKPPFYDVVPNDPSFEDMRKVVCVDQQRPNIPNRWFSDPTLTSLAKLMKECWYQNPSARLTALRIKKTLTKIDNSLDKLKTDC
Serine/threonine-protein kinase pim-2 (Homo sapiens), sequence (Q9P1W9 whole entry, looked up): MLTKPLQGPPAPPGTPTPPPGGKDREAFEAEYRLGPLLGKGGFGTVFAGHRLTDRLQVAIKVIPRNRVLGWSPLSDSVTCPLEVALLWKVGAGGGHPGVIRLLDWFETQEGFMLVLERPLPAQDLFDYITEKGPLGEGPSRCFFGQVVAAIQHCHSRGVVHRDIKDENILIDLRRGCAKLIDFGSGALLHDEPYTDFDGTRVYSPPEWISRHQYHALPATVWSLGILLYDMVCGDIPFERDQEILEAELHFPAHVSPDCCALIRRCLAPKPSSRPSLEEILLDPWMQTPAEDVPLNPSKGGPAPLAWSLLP

Row | Structure (SMILES) | residual activity [1] [%] | residual activity [2] [%] | residual activity [3] [%] | residual activity [4] [%] | residual activity [5] [%] | residual activity [6] [%] | residual activity [7] [%] | residual activity [8] [%] | residual activity [9] [%] | inhibition [10] [%] | residual activity [11] [%] | residual activity [12] [%] | residual activity [13] [%] | residual activity [14] [%] | residual activity [15] [%] | inhibition [16] [%] | residual activity [17] [%] | residual activity [18] [%] | residual activity [19] [%] | inhibition [20] [%] | further results
1 | NS(=O)(=O)c1cc(NC(=O)Cc2ccccc2)ccc1Oc1cccc(Cl)c1 [BAY-1797] | 100 | 95 | 88 | 76 | 73 | 51 | 58 | 70 | 100 | 2.32 | 75 | 100 | 90 | 63 | 98 | 55.4 | 100 | 94 | 94 | -4.85 | residual activity [21]: 100%; residual activity [22]: 100%; residual activity [23]: 84%; inhibition [24]: 16.7%; residual activity [25]: 69%; residual activity [26]: 100%; inhibition [27]: 0.87%; residual activity [28]: 77%; residual activity [29]: 100%; residual activity [30]: 93%; residual activity [31]: 69%; residual activity [32]: 87%; residual activity [33]: 93%; residual activity [34]: 81%; residual activity [35]: 91%; residual activity [36]: 73%; residual activity [37]: 89%
2 | NS(=O)(=O)c1cc(NC(=O)C2(c3ccccc3Cl)CC2)ccc1Oc1cccc(Cl)c1 [BAY-207] | 76 | 100 | 88 | 82 | 100 | 96 | 84 | 80 | 68 | 6.88 | 98 | 97 | 100 | 100 | 100 | 19.5 | 100 | 68 | 87 | 11.5 | residual activity [21]: 93%; residual activity [22]: 48%; residual activity [23]: 100%; inhibition [24]: 14.7%; residual activity [25]: 90%; residual activity [26]: 91%; inhibition [27]: 10.5%; residual activity [28]: 89%; residual activity [29]: 67%; residual activity [30]: 91%; residual activity [31]: 70%; residual activity [32]: 76%; residual activity [33]: 99%; residual activity [34]: 93%; residual activity [35]: 72%; residual activity [36]: 73%; residual activity [37]: 90%
